The source of these data is article PMC6397271 (Scientific Reports, 2019).

In series [1] the test system is intracellular MRSA 12673 strain in HEK293 cells. Nature of the series: Intracellular antimicrobial (infection) assay. The class given is cell-based, Staphylococcus aureus. As to conditions: MRSA-infected HEK293 cells, 25 µM, 24 h. The procedure: HEK293 (human embryonic kidney) cells were purchased form Cell Line Services (Germany). The cells were cultured in Dulbecco’s Modified Eagle’s (DMEM) medium with 4.5 g/l glucose (Sigma-Aldrich, Germany), supplemented with 10% fetal bovine serum (FBS, Sigma-Aldrich, Germany) and 1% PEN/STREP (Sigma-Aldrich, Germany). Cells were maintained in a 5% CO2 incubator at 37 °C. The original lines were checked for the presence of mycoplasma.
HEK293 cells were seeded at a density of 1.5 × 10^5 cells/well in 24-well plates in an antibiotic-free medium (DMEM + 10% FBS) and were allowed to adhere overnight. Next, the medium was removed and overnight culture of S. aureus strain (12673) suspended in DMEM + 1% FBS (invasive medium) at a ratio of bacteria/cells 25:1 was added. To enable bacterial invasion, the cells were incubated with bacterial suspensions (37 °C, 5% CO2) for 2 h.
After this period of time extracellular bacteria were eliminated by a 30 min incubation with 20 U/ml lysostaphin. […] The lysis of human cells was carried out with 0.2% Trition-X-100 (Sigma-Aldrich, Germany). The obtained cell lysates were serially diluted in PBS and plated on agar plates and CFU/ml was determined.
The results are presented as the percentage of S. aureus intracellular survival after treatment in comparison to that of non-treated cells (control). The assay was performed in triplicates.

Series [2] is described as follows: Brain concentration by LC/MS after iv administration. The class given is in vivo, BALB/c male mice. The settings on record: iv, 2 h, LC/MS of brain homogenate. The procedure:
In vivo experiments were performed on BALB/c male mice weighing between 20 and 30 g (the mouse model is widely used for estimation of drug BBB penetration). The animals (obtained from TAZD-CBU) were kept in a 12-hour day and night cycle at room temperature (20–22 °C), humidity 55–56% and fed with a standard diet and water ad libitum for at least 1 week before the experiment. Body temperature and weight were recorded on a regular daily schedule. It is confirmed that all procedures were carried out according to the guidelines outlined by the European Community Council Directive 2010/63/EEC, and they were approved by the local Ethical Committee Resolution 26/2014 (Bydgoszcz, Poland).
The experiments in this section also involved the mouse model described above. […] Similarly to what was stated previously, the mice were sacrificed 2 hours after the administration of the compounds. Their brains were removed immediately from the cranium and weighed. Next, they were homogenized mechanically in the ice and frozen at −80 °C.
Each homogenized mouse brain was centrifuged at 15 000 × g for 10 min. The supernatant was diluted with deionised water (Millipore), filtered (PTFE 0.22 μm filter) and analyzed by UHPLC-ESI/MS with the use of Shimadzu Nexera X2 UHPCL chromatograph and Shimadzu LCMS-2020 mass detector. […]

In series [3] the test system is Enterococcus faecalis 3937158. Kind of series: microbe, parasite or virus in culture. The class given is cell-based. The settings on record: microbroth dilution, 96-well, resazurin, 37 °C, 24 h; mean ± SD, at least three independent experiments in triplicates. An excerpt: (§1) Three bacterial strains of MRSA (N315, 12673, 6347) and two of Enterococcus spp. (E. faecium, E. faecalis) were used. With respect to MRSA, N315 represented a reference Van-susceptible strain (GenBank GCA_00000645.1) isolated from a patient while 12673 (Van-intermediately susceptible) and 6347 (a h-VISA which appears at frequency of <10^−5 to 10^−6 is composed of two subpopulations of bacteria: one susceptible and one intermediately resistant)[38] were clinical strains obtained from patients of The Clinical University Centre of Gdańsk (UCK). […] The clinical strain isolates originated from the collection of the Department of Pharmaceutical Technology and Biochemistry, Faculty of Chemistry, Gdańsk University of Technology.
(§2) The strains were grown in Mueller-Hinton broth (MH cation-adjusted, Becton Dickinson) or Brain Heart Infusion broth (BHI, Becton Dickinson), respectively. The cultivation was carried out in an aerobic atmosphere at 37 °C for 24 hours and, afterwards, the bacterial cultures were diluted in geometric progression with a proper broth. Next, 100 µl of each dilution was inoculated in an agar plate and incubated at 37 °C for 24 h. The next procedures included determination of Colony Forming Units (CFU)/ml and minimal inhibitory concentration (MIC) of the compounds in question. The latter procedure was carried out according to the microbroth dilution technique using 96-well plates. The MICs were evaluated by using the metabolic assay based on the resazurin dye. The assay was performed in triplicates.

The subject of series [4] is Enterococcus faecium 3934825. Kind of series: microbe, parasite or virus in culture. In kind it is cell-based. The settings on record: microbroth dilution, 96-well, resazurin, 37 °C, 24 h; mean ± SD, at least three independent experiments in triplicates.
Source text: as §1, §2
For orientation: In broth dilution the organism is exposed to a series of concentrations in liquid medium.

In the next series the test system is S. aureus MRSA 12673. Kind of series: microbe, parasite or virus in culture. The class given is cell-based, Staphylococcus aureus. As to conditions: microbroth dilution, 96-well, resazurin, 37 °C, 24 h; mean ± SD, at least three independent experiments in triplicates.
Source text: as §1, §2

In another series the test system is S. aureus MRSA N315. Nature of the series: microbe, parasite or virus in culture. The class given is cell-based, Staphylococcus aureus. The settings on record: microbroth dilution, 96-well, resazurin, 37 °C, 24 h; mean ± SD, at least three independent experiments in triplicates.
Source text: as §1, §2

For series [5], the system named is S. aureus MRSA hetero-VISA 6347. Kind of series: microbe, parasite or virus in culture. The class given is cell-based, Staphylococcus aureus. As to conditions: microbroth dilution, 96-well, resazurin, 37 °C, 24 h; mean ± SD, at least three independent experiments in triplicates.
Source text: as §1, §2

The test system of a further series is S.aureus MRSA N315. Nature of the series: microbe, parasite or virus in culture. The class given is cell-based, Staphylococcus aureus. As to conditions: TP10 alone. Here is the method:
(§3) To find out MICA(with B) and MICB(with A) a checkerboard assay was carried out in 96-well microtiter plates (each test was performed in triplicates). […] Each well in a 96-well plate was inoculated with 100 µL of bacterial inoculum of 1 × 10^5 CFU/mL. For this purpose only bacterial strains of MRSA (N315, 12673 and 6347) were used. Next, the plates were incubated at 37 °C for 24 h.
(§4) FIC index (FICI) is the sum of FICA and FICB. The interpretation of the calculated FICIs is in accordance to the following principle: FICI ≤ 0.5 synergy; FICI > 0.5 and ≤4 indifference (no interaction); FICI > 4, antagonism.

Another series concerns S.aureus MRSA 12673. Kind of series: microbe, parasite or virus in culture. In kind it is cell-based, Staphylococcus aureus. The settings on record: TP10 alone. The procedure: as §3, §4
The subject of series [6] is S.aureus MRSA hetero-VISA 6347. Kind of series: microbe, parasite or virus in culture. In kind it is cell-based, Staphylococcus aureus. The settings on record: TP10 alone. Here is the method: as §3, §4

≈ marks a conversion by molar mass, not a printed value.

Take `CC[C@H](C)[C@H](NC(=O)[C@H](CCCCN)NC(=O)[C@H](CCCCN)NC(=O)[C@H](C)NC(=O)[C@H](CC(C)C)NC(=O)[C@H](C)NC(=O)[C@H](C)NC(=O)[C@H](CC(C)C)NC(=O)[C@H](C)NC(=O)[C@H](CCCCN)NC(=O)[C@H](CC(C)C)NC(=O)[C@H](CC(N)=O)NC(=O)[C@@H](NC(=O)[C@H](CCCCN)NC(=O)CNC(=O)[C@H](CC(C)C)NC(=O)[C@H](CC(C)C)NC(=O)[C@H](Cc1ccc(O)cc1)NC(=O)CNC(=O)[C@H](C)N)[C@@H](C)CC)C(=O)N[C@@H](CC(C)C)C(N)=O` [TP10, transportan 10, reference compound]: the “intracellular MRSA killed (bacterial killing rate)” value in series [1] came out at 26%. The “access to the brain / BBB penetration (in words)” value in series [2] is “did not gain access to the brain”. For the same compound, the “MIC” value in series [3] was 12.5 ± 2.2 µM (≈ 27.3 µg/mL); in series [4], 12.5 ± 3.4 µM (≈ 27.3 µg/mL); against S. aureus MRSA 12673, 6.3 ± 1.6 µM (≈ 13.7 µg/mL); against S. aureus MRSA N315 it was 6.3 ± 1.3 µM (≈ 13.7 µg/mL); in [5], 12.5 ± 3.2 µM (≈ 27.3 µg/mL). For the same compound, the “MIC TP10 (B), MICB” value turned out to be 6.3 µM with S.aureus MRSA N315, 6.3 µM in the series with S.aureus MRSA 12673 and 12.5 µM in series [6].
